Laboratory results: patent publication US20090054412A1, “Treatment of Sleep Disorders” (priority 2007, published 2009)
Values joined by “and” are separate entries in the source; they are usually repeats but may differ in a detail not shown here. Identical values can stand only once.

Tests used:
[1] = biological target: T1, rat GABAA receptors α5β2γ2 (Rattus norvegicus, UniProt P18508+P19969); test: Stimulation of GABA (EC3-5)-elicited currents in Xenopus oocytes, two-electrode voltage clamp, α5β2γ2; type: cell-based
T1 construct: expressed in transfected cells; host or cells: Xenopus laevis oocytes, cRNA microinjected
Text: (§1) 7-Chloro-3-(5-dimethylaminomethyl-[1,2,4]oxadiazol-3-yl)-5methyl-4,5-dihydro-imidazol[1,5,-a][1,4]benzodiazepine-6-one was used to test the effects of the compound of formula (II): […]
(§2) Similar procedures were chosen as for the investigation of other GABAA receptor subunit specific substances (e.g., Baur et al., 2005; Mol. Pharmacol. 68, 787-792).
(§3) Lobes of the ovary containing the follicles were obtained by surgical procedures from female Xenopus laevis. Follicles were singled out using a platinum loop. Fifty nL of cRNA solution at a ratio of αx:β2:γ2 of 1:1:5 (3.3-10 nM αx (x=1,2,3,5); 3.3-10 nM β2; 16.7-50 nM γ2) (Boileau et al., 2002; Neuropharmacology 43, 695-700) were microinjected into Xenopus follicles. Several hours after microinjection the follicles were freed of follicular layers and adhering connective tissue by a collagenase/hypertonic shock procedure (Sigel, 1987; J. Physiol.(Land) 386, 73-90). Oocytes were kept at constant 18° C. until measurement (1-4 days) in a modified Barth solution (88 mM NaCl, 1 mM KCl, 2.4 mM NaHCO3, 10 mM Hepes-NaOH (pH 7.5), 0.82 mM MgSO4×7H2O, 0.34 mM Ca(NO3)2×4H2O, 0.41 mM CaCl2×2H2O, 100 U Penicillin/mL, 100 μg Streptomycin/mL, sterile filtered).
(§4) Currents were measured using a home-built amplifier in combination with a xy-recorder or were digitized using a MacLab/200 (AD Instruments) and stored on a computer. Xenopus oocytes were voltage clamped using the two-electrode voltage clamp technique (electrode resistance about 0.8 MΩ) at −80 mV. The medium contained 90 mM NaCl, 1 mM KCl, 1 mM MgCl2, 1 mM CaCl2, 10 mM Na-Hepes (pH 7.4) and 0.5% DMSO.
(§5) GABA was applied for 20-50 seconds without or in combination with other drugs and a washout period of 4 minutes was allowed to ensure full recovery from desensitization, which was experimentally determined. The perfusion solution (6 mL/min) was applied through a glass capillary with an inner diameter of 1.35 mm, the mouth of which was placed about 0.4 mm from the surface of the oocyte. The rate of solution change under our conditions has been estimated 70% within less than 0.5 s (Sigel et al., 1990; Neuron 5, 703-711). The entire perfusion system and the assay chamber were cleaned between drug applications by washing with DMSO.
(§6) Data is given as mean±SD, except in the figures where data is shown for clarity as mean±SEM. Current stimulation was calculated as follows: stimulation (%)=((I(GABA+modulator)−I(GABA))/I(GABA))×100%, where I is the current amplitude. Where indicated, the stimulation was standardized to the stimulation by 1 μM diazepam (100%). To obtain FIGS. 1-4, values for current stimulation obtained at a given concentration of modulator at a given subunit combination were averaged. The data points were fitted with the equation stimulation=efficacy/(1+(potency/concentration of modulator)). The values given in the Tables (Summary) are obtained by fitting individual curves and subsequently averaging efficacy and potency.
(§7) Concentration response curves were also performed with oocytes expressing α2β2γ2, α3β2γ2, or α5β2γ2, after establishing the optimal concentration range as indicated above. […] Averaged data of the individual curves summarizing the effects of the compound of formula (II) are shown below for unstandardized and standardized stimulation.
(§8) Concentration response curves were also performed with oocytes expressing α2β2γ2, α3β2γ2, or α5β2γ2.
(§9) Current stimulation by diazepam was determined in each batch of oocytes as follows. GABA (EC3-5) was applied until a stable response was obtained. Subsequently, GABA was applied in combination with 1 μM diazepam.

[2] = biological target: T2, rat GABAA receptors α2β2γ2 (Rattus norvegicus, UniProt P18508+P23576); test: Stimulation of GABA (EC3-5)-elicited currents in Xenopus oocytes, two-electrode voltage clamp, α2β2γ2; type: cell-based
T2 construct: expressed in transfected cells; host or cells: Xenopus laevis oocytes, cRNA microinjected
Text: as §1, §2, §3, §4, §5, §6, §7, §8, §9

[3] = biological target: T3, rat GABAA receptors α1β2γ2 (Rattus norvegicus, UniProt P18508+P62813); test: Stimulation of GABA (EC3-5)-elicited currents in Xenopus oocytes, two-electrode voltage clamp, α1β2γ2; type: cell-based; conditions: for Standardized Efficacy: standardized to stimulation by 1 μM diazepam (100%)
T3 construct: expressed in transfected cells; host or cells: Xenopus laevis oocytes, cRNA microinjected
Text: as §1, §2, §3, §4, §5, §6
GABA (EC3-5) was applied to an oocyte expressing α1β2γ2 GABAA receptors several times until the current response was stable. The GABA (EC3-5) refers to the effective concentration of GABA, which produces a response that is 3-5% of the maximal response to high concentrations of GABA. Such a low concentration of GABA is chosen in order to better see the potentiating effect of positive allosteric modulators.
GABA was then applied in combination with various concentrations of the compound of formula (II) between 0.3 nM and 3,000 nM to produce a cumulative concentration response curve. […] In each batch of oocytes the stimulation by 1 μM diazepam was determined in five ocytes, extent of stimulation averaged and defined as 100%. Where indicated, stimulation by the compound of formula (II) in each batch of ocytes was expressed as a percentage of this value in the corresponding batch.
GABA (EC3-5) was applied to an oocyte expressing α1β2γ2 GABAA receptors several times until the current response was stable.

[4] = test system: GABAA receptors; conditions: 20 mg, in man, PET; cited from earlier work
[5] = biological target: T4, rat GABAA receptors α3β2γ2 (Rattus norvegicus, UniProt P18508+P20236); test: Stimulation of GABA (EC3-5)-elicited currents in Xenopus oocytes, two-electrode voltage clamp, α3β2γ2; type: cell-based
T4 construct: expressed in transfected cells; host or cells: Xenopus laevis oocytes, cRNA microinjected
Text: as §1, §2, §3, §4, §5, §6, §7, §8, §9

[6] = standardized to stimulation by 1 μM diazepam (100%)
[7] = unstandardized current stimulation
[8] = 1 μM, different batches of oocytes, n=5

T2 sequence (P23576 29-451): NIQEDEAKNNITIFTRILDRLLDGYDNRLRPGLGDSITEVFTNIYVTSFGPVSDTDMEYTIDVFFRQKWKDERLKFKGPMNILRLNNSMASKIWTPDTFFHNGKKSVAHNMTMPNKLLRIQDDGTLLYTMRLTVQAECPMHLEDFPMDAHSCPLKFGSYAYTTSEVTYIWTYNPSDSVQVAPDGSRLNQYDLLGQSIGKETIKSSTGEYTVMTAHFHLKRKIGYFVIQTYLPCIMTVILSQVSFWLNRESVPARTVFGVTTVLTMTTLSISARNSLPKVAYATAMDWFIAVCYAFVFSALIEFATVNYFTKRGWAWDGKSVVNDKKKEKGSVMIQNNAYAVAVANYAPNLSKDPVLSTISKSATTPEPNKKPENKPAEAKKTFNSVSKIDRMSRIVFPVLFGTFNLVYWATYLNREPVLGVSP
T2 sequence (P63138 25-474 partner limits assumed): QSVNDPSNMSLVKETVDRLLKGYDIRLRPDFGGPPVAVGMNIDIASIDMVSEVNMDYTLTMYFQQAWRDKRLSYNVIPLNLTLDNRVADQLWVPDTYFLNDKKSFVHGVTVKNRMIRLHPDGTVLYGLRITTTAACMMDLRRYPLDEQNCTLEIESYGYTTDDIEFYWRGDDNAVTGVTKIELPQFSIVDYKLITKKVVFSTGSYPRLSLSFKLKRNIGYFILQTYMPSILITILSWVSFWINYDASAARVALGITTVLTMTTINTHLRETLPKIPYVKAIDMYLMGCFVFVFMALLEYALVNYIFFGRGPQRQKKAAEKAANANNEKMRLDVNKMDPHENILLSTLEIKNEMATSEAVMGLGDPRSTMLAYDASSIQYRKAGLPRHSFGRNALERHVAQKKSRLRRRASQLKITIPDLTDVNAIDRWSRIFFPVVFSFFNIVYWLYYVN
T2 sequence (P18508 39-466): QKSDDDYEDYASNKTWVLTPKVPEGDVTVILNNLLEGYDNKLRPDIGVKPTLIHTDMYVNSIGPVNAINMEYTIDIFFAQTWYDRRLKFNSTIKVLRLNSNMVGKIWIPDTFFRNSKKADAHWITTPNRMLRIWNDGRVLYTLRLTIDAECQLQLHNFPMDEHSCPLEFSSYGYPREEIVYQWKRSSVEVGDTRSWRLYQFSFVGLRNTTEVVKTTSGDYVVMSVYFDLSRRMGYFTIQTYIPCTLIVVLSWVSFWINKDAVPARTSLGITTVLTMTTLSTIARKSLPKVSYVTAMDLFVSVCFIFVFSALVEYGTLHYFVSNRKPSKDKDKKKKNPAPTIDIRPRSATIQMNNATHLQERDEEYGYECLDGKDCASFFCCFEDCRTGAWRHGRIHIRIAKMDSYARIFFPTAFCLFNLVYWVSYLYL
T3 sequence (P62813 28-455): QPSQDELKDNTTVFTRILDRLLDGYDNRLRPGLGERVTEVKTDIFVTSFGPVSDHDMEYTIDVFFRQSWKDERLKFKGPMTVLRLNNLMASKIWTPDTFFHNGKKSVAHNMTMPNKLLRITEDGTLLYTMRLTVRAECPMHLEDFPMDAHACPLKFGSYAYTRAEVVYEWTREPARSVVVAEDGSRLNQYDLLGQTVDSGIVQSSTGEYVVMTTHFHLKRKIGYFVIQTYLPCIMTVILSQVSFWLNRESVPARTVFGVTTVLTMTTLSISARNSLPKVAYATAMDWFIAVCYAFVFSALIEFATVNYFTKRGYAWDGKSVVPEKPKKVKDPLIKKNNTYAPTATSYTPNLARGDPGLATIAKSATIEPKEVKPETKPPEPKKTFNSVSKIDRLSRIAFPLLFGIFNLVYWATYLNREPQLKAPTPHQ
T3 sequence (P63138 25-474 partner limits assumed): as the sequence (P63138 25-474 partner limits assumed) above
T3 sequence (P18508 39-466): as the sequence (P18508 39-466) above
T4 sequence (P20236 29-493): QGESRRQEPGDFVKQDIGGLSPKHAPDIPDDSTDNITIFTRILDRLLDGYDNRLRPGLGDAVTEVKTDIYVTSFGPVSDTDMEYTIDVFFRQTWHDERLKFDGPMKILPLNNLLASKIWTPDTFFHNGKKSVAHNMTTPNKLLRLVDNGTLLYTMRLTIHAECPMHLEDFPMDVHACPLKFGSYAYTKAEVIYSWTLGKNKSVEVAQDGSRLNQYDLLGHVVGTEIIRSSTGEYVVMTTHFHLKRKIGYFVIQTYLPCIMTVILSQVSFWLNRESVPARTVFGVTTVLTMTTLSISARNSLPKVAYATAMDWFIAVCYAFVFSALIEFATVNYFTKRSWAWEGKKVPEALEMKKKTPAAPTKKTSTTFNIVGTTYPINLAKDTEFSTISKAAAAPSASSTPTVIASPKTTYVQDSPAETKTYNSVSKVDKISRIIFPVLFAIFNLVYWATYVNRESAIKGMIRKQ
T4 sequence (P63138 25-474 partner limits assumed): as the sequence (P63138 25-474 partner limits assumed) above
T4 sequence (P18508 39-466): as the sequence (P18508 39-466) above
T1 sequence (P19969 32-464 limits assumed): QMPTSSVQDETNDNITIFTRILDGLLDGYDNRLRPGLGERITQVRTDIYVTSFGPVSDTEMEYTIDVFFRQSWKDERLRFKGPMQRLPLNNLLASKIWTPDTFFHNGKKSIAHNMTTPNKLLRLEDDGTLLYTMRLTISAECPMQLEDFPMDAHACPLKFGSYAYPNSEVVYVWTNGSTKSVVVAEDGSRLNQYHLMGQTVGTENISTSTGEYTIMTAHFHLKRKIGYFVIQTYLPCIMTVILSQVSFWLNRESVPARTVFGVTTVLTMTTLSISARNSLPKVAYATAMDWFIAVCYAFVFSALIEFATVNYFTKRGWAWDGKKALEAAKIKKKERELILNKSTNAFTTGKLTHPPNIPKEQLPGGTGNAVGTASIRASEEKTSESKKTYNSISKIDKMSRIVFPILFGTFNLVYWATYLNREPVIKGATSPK
T1 sequence (P63138 25-474 partner limits assumed): as the sequence (P63138 25-474 partner limits assumed) above
T1 sequence (P18508 39-466): as the sequence (P18508 39-466) above

| Structure (SMILES) | Standardized Efficacy [1, 6] [%] | Efficacy [1, 7] [%] | Standardized Efficacy [2, 6] [%] | Efficacy [2, 7] [%] | Intrinsic activity / type of allosteric modulation ([3]; GABAA receptor benzodiazepine site, relative to diazepam) | Receptor subtype affinity ([3]; in comparison to α2β2γ2, α3β2γ2 and α5β2γ2) | Standardized Efficacy ([3]; α1β2γ2) [%] | Standardized Efficacy ([3]; α1β2γ2, listed as zolpidem) [%] | Efficacy ([3]; α1β2γ2, unstandardized current stimulation) [%] | receptor occupancy [4] | Standardized Efficacy [5, 6] [%] | Efficacy [5, 7] [%] | Stimulation by 1 μM diazepam [1, 8] | Stimulation by 1 μM diazepam [2, 8] | Stimulation by 1 μM diazepam ([3]; α1β2γ2, 1 μM, different batches of oocytes, n=5) | Stimulation by 1 μM diazepam [5, 8] |
| --- | --- | --- | --- | --- | --- | --- | --- | --- | --- | --- | --- | --- | --- | --- | --- | --- |
| Cc1ccc(-c2nc3ccc(C)cn3c2CC(=O)N(C)C)cc1 [Zolpidem, zolpidem] | 16 ± 4 | 33 ± 12 | 179 ± 23 | 484 ± 60 | full agonist | higher affinity at α1β2γ2 GABAA receptors | 215 ± 74 | 215 | 429 ± 120 | about 20% | 166 ± 88 | 691 ± 365 | – | – | – | – |
| CN1C(=O)CN=C(c2ccccc2)c2cc(Cl)ccc21 [diazepam] | – | – | – | – | – | – | – | – | – | – | – | – | 237+97% and 160+4% | 264+61% and 280+71% and 318+62% | 223+28% and 178+20% | 417+85% and 417+144% |
